These are literature values, as cited in US6090852A, “Substituted alpha-aminosulphonyl-acetohydroxamic acids as therapeutic agents” (Pfizer Inc, priority 1998, dated 2000).

The subject of the data set is human ovarian carcinoma xenografts. The conditions noted are these: mice carrying human ovarian carcinoma xenografts; Cancer Res., 1993, 53, 2087. In general terms: Xenograft models place foreign cells or tissue in a host animal.

As to `CNC(=O)[C@H](Cc1ccccc1)NC(=O)[C@H](CC(C)C)[C@H](CSc1cccs1)C(=O)NO` [BB-94], the survival result is reported as “prolong the survival” and the tumour burden result is “decrease the tumour burden”.
